From ChEMBL document CHEMBL1149961, “Design, synthesis, activity, and structure of a novel class of matrix metalloproteinase inhibitors containing a heterocyclic P2-P3 amide bond isostere” (Bioorg Med Chem Lett, 1996) come the findings set out here.

One assay has as its target T1, Interstitial collagenase (Homo sapiens, UniProt P03956).
T1 sequence (P03956 whole entry): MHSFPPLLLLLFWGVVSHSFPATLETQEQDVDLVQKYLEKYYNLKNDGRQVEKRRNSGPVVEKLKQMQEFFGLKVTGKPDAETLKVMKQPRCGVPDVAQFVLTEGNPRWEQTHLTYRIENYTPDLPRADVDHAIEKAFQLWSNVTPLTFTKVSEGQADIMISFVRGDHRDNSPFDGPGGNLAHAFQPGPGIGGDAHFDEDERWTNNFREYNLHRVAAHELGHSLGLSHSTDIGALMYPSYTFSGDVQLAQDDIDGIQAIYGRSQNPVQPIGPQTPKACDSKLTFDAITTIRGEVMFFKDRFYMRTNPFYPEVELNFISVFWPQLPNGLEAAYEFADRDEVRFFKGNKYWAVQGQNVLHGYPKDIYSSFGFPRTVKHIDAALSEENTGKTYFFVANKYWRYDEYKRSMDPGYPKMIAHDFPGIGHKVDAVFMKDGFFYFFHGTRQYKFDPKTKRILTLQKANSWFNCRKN
Description: Inhibition of human fibroblast collagenase, matrix metalloprotease-1.

The next assay has as its target T2, Matrilysin (Homo sapiens, UniProt P09237).
T2 sequence (P09237 whole entry): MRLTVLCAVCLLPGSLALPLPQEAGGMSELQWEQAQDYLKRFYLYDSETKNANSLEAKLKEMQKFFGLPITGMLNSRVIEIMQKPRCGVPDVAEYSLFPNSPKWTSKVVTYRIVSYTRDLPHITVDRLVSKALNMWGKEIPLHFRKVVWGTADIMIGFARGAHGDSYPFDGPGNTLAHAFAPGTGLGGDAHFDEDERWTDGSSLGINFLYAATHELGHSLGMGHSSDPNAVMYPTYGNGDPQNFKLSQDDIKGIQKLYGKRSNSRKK
Briefly: Inhibition of matrilysin, matrix metalloprotease-7.

Another assay addresses Stromelysin-1 (Homo sapiens, UniProt P08254). Briefly: Inhibition of human fibroblast stromelysin, matrix metalloprotease-3.

Chain of Stromelysin-1 (P08254 whole entry): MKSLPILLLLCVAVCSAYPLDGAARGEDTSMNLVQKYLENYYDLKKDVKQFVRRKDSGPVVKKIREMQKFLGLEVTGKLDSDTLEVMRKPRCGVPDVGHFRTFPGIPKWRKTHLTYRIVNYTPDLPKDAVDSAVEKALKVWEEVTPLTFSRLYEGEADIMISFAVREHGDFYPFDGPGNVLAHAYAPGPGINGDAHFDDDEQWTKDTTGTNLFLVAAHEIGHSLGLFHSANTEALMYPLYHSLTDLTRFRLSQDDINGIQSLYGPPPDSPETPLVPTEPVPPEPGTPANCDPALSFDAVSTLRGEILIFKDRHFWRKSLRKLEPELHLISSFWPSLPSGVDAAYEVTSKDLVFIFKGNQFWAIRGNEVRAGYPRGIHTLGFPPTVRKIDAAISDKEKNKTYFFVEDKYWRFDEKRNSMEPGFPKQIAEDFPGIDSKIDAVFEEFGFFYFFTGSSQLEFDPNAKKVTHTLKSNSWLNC

For `CC(C)C[C@H](CC(=O)NO)C(=O)N[C@@H](CC(C)C)c1nc2cc(Cl)c(Cl)cc2[nH]1`, the IC50 (in general, the concentration at which inhibition is half-maximal) on Interstitial collagenase is 0.04 µM; on Matrilysin, 0.033 µM; at Stromelysin-1 it was 0.068 µM.
For `COc1ccc2nc([C@H](CC(C)C)NC(=O)[C@@H](CC(=O)NO)CC(C)C)[nH]c2c1`, the half-inhibitory concentration (IC50) stood at 0.006 µM at Interstitial collagenase, 0.01 µM at Matrilysin and 0.03 µM at Stromelysin-1.
Take `COC(=O)c1ccc(NC(=O)[C@H](CC(C)C)NC(=O)[C@@H](CC(=O)NO)CC(C)C)cc1`: the IC50 worked out at 0.0069 µM on Interstitial collagenase, 0.00023 µM against Matrilysin and 0.0008 µM against Stromelysin-1.
On to `CC(C)C[C@H](CC(=O)NO)C(=O)N[C@@H](CC(C)C)c1ncc[nH]1`, for which the values for the IC50 against Interstitial collagenase, against Matrilysin and at Stromelysin-1 were 0.009 µM, 0.05 µM and 0.32 µM, respectively.
Regarding `CC(C)C[C@H](CC(=O)NO)C(=O)N[C@@H](CC(C)C)c1nc2cc(C(F)(F)F)ccc2[nH]1`, the IC50 at Interstitial collagenase was 0.007 µM; against Matrilysin it was 0.01 µM; against Stromelysin-1 it was 0.02 µM.
Regarding `CC(C)C[C@H](CC(=O)NO)C(=O)N[C@@H](Cc1c[nH]c2ccccc12)c1nc2ccccc2[nH]1`, the IC50 at Interstitial collagenase was 0.022 µM; at Matrilysin, 0.01 µM; against Stromelysin-1 it was 0.029 µM.
In the case of `COC(=O)c1[nH]c([C@H](CC(C)C)NC(=O)[C@@H](CC(=O)NO)CC(C)C)nc1-c1ccccc1`, the half-inhibitory concentration (IC50) against Interstitial collagenase was determined as 3.5 µM; on Matrilysin it was 0.07 µM; against Stromelysin-1 it was 0.32 µM.
For `CC(C)C[C@H](NC(=O)[C@@H](CC(=O)NO)C1CCCCC1)c1nc(-c2ccccc2)c[nH]1`, the 50% inhibitory concentration (IC50) against Interstitial collagenase came to 0.48 µM; at Matrilysin, 0.0031 µM; against Stromelysin-1, 5.9 µM.
Consider `CC(C)C[C@H](CC(=O)NO)C(=O)N[C@@H](CC(C)C)c1nc2ccccc2[nH]1`, for which the IC50 turned out to be 0.029 µM against Interstitial collagenase, 0.002 µM against Matrilysin and 0.008 µM on Stromelysin-1.
As for `COC(=O)c1ccc2nc([C@H](CC(C)C)NC(=O)[C@@H](CC(=O)NO)CC(C)C)[nH]c2c1`, the half-maximal inhibitory concentration (IC50) against Interstitial collagenase is 0.003 µM; at Matrilysin, 0.001 µM; against Stromelysin-1, 0.005 µM.
For `CC(C)C[C@H](CC(=O)NO)C(=O)N[C@@H](CC(C)C)c1nc(-c2ccccc2)c[nH]1`, the IC50 on Interstitial collagenase amounted to 0.17 µM; at Matrilysin it was 0.001 µM; at Stromelysin-1, 0.112 µM.
For `CC(C)C[C@H](CC(=O)NO)C(=O)N[C@@H](Cc1c[nH]c2ccccc12)c1ncc[nH]1`, the IC50 against Interstitial collagenase was found to be 0.018 µM; at Matrilysin it was 0.018 µM; at Stromelysin-1 it was 0.28 µM.
